Reference: US7166622B2, “Substituted phenylsulfonamide inhibitors of beta amyloid production” (Wyeth, priority 2002, dated 2007)
Where “and” joins values, the source holds several entries; their conditions need not be identical. Equal entries are not always repeated.

Columns and labels:
[1] = system: beta amyloid production; assay: Repressor Release Assay (RRA); format: cell-based; details: for fold induction at 3 µg/mL / fold induction at 10 µg/mL / APPI Fold Increase: luciferase activity over diluent control; for fold induction at 3 µg/mL / fold induction at 10 µg/mL: read-out: APPI Fold Increase; for APPI % of Example #98: relative to Example 98
Procedure, shortened: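 CHO-K1 cells transiently co-transfected with pRSVO-luc and an APP-lacI construct, replated, then treated in duplicate for 36-48 h at 37 °C, 5% CO2. Compounds diluted in 25 mM Hepes, with Hepes/1% DMSO as diluent control. Luciferase read-out in relative light units; toxicity scored 1 non-toxic, 0 toxic.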

[2] = system: CHO-K1 cells; assay: Toxicity in RRA (loss of luciferase signal); details: toxicity = loss of signal (<0.75 fold increase)
Experimental: The beta amyloid inhibitory activity of the compounds of the present invention was determined using the Repressor Release Assay (RRA).
“Fold Increase” refers to the amount of luciferase activity (measured in relative light units) over diluent control. “SEM” refers to the standard error of the mean for fold increase.

Structure (SMILES) | fold induction at 10 µg/mL ([1]; Conc 10 μg/ml) | (%)APPI Toxicity ([2]; Conc 10 μg/ml) | other results
C=CCC(O)[C@@H](NS(=O)(=O)c1ccc(F)cc1)[C@@H](C)CC (stereo partly drawn) [Example 134, 4-fluoro-N-{(1S)-2-hydroxy-1-[(1S)-1-methylpropyl]-4-pentenyl}benzenesulfonamide] | 3 | 1 (1=non-toxic) | fold induction at 3 µg/mL ([1]; Conc 3 μg/ml): 1.5; (%)APPI Toxicity ([2]; Conc 3 μg/ml): 1 (1=non-toxic)
CCC(O)[C@@H](NS(=O)(=O)c1ccc(F)cc1)[C@@H](C)CC (stereo partly drawn) [Example 135, 4-fluoro-N-{(1S)-2-hydroxy-1-[(1S)-1-methylpropyl]butyl}benzenesulfonamide] | 1.91 | 1 (1=non-toxic) | 
CC[C@H](C)[C@H](NS(=O)(=O)c1ccc(F)cc1)C(O)c1ccc(Cl)cc1 (stereo partly drawn) [Example 136, N-{(1S,2S)-1-[(4-chlorophenyl)(hydroxy)methyl]-2-methylbutyl}-4-fluorobenzenesulfonamide] | 3.04 | 1 (1=non-toxic) | 
CC[C@H](C)[C@H](NS(=O)(=O)c1ccc(F)cc1)C(O)C=C(C)C (stereo partly drawn) [Example 137, 4-fluoro-N-{(1S)-2-hydroxy-4-methyl 1-[(1S)-1-methylpropyl]-3-pentenyl}benzenesulfonamide] | 1.61 | 1 (1=non-toxic) | 
C=C(C)C(O)[C@@H](NS(=O)(=O)c1ccc(F)cc1)[C@@H](C)CC (stereo partly drawn) [Example 138, 4-fluoro-N-{(1S)-2-hydroxy-3-methyl-1-[(1S)-1-methylpropyl]-3-butenyl}benzenesulfonamide] | 1.57 | 1 (1=non-toxic) | 
CC[C@H](C)[C@H](NS(=O)(=O)c1ccc(F)cc1)C(O)c1ccc(OC)cc1 (stereo partly drawn) [Example 139, 4-fluoro-N-{(1S,2S)-1-[hydroxy(4-methoxyphenyl)methyl]-2-methylbutyl}benzenesulfonamide] | 2.12 | 1 (1=non-toxic) | 
CC[C@H](C)[C@H](NS(=O)(=O)c1ccc(F)cc1)C(O)CCC1OCCCO1 (stereo partly drawn) [Example 140, N-{(1S)-4-(1,3-dioxan-2-yl)-2-hydroxy-1-[(1S)-1-methylpropyl]butyl}-4-fluorobenzenesulfonamide] | 1.52 | 1 (1=non-toxic) | 
C=CCCC(O)[C@@H](NS(=O)(=O)c1ccc(F)cc1)[C@@H](C)CC (stereo partly drawn) [Example 141, 4-fluoro-N-{(1S)-2-hydroxy-1-[(1S)-1-methylpropyl]-5-hexenyl}benzenesulfonamide] | 1.79 | 1 (1=non-toxic) | 
CC[C@H](C)[C@H](NS(=O)(=O)c1ccc(F)cc1)C(O)c1ccc(SC)cc1 (stereo partly drawn) [Example 142, 4-fluoro-N-((1S,2 S)-1-{hydroxy[4-(methylsulfanyl)phenyl]methyl}-2-methylbutyl)benzenesulfonamide] | 2.71 | 1 (1=non-toxic) | 
CC[C@H](C)[C@H](NS(=O)(=O)c1ccc(F)cc1)C(O)c1ccc(N(C)C)cc1 (stereo partly drawn) [Example 143, N-{(1S,2S)-1-[[4-(dimethylamino)phenyl](hydroxy)methyl]-2-methylbutyl}-4-fluorobenzenesulfonamide] | 5.72 | 1 (1=non-toxic) | 
CC[C@H](C)[C@H](NS(=O)(=O)c1ccc(F)cc1)C(O)c1cccc2ccccc12 (stereo partly drawn) [Example 144, 4-fluoro-N-{(1S,2S)-1-[hydroxy(1-naphthyl)methyl]-2-methylbutyl}benzenesulfonamide] | 1.69 | 1 (1=non-toxic) | 
CC[C@H](C)[C@H](NS(=O)(=O)c1ccc(Br)cc1)C(C)O (stereo partly drawn) [Example 145, 4-bromo-N-[(1S,2S)-1-(1-hydroxyethyl)-2-methylbutyl]benzenesulfonamide] | 3.9 | 1 (1=non-toxic) | 
CC[C@H](C)[C@H](NS(=O)(=O)c1ccc(Br)cc1)C(O)C1CCCC1 (stereo partly drawn) [Example 146, 4-bromo-N-1-{(1S,2S)-1-[cyclopentyl(hydroxy)methyl]-2-methylbutyl}benzenesulfonamide] |  | 1 (1=non-toxic) | APPI Fold Increase ([1]; Conc 3 μg/ml): 1.53 fold; APPI % of Example #98 ([1]; Conc 3 μg/ml): 60.66%; APPI Fold Increase ([1]; Conc 10 μg/ml): 4.26 fold and 2.33 fold; APPI % of Example #98 ([1]; Conc 10 μg/ml): 166.6% and 92.64%; (%)APPI Toxicity ([2]; Conc 3 μg/ml): 1 (1=non-toxic)
CCCCCC(O)[C@@H](NS(=O)(=O)c1ccc(Br)cc1)[C@@H](C)CC (stereo partly drawn) [Example 147, 4-bromo-N-{(1S)-2-hydroxy-1-[(1S)-1-methylpropyl]heptyl}benzenesulfonamide] | 1.94 | 1 (1=non-toxic) | 
CCCCC(O)[C@@H](NS(=O)(=O)c1ccc(Br)cc1)[C@@H](C)CC (stereo partly drawn) [Example 148, 4-bromo-N-{(1S)-2-hydroxy-1-[(1S)-1-methylpropyl]hexyl}benzenesulfonamide] | 1.88 | 1 (1=non-toxic) | 
C=CC(O)[C@@H](NS(=O)(=O)c1ccc(Br)cc1)[C@@H](C)CC (stereo partly drawn) [Example 151, 4-bromo-N-{(1S)-2-hydroxy-1-[(1S)-1-methylpropyl]-3-butenyl}benzenesulfonamide] | 2.9 | 1 (1=non-toxic) | 
C=CCC(O)[C@@H](NS(=O)(=O)c1ccc(Br)cc1)[C@@H](C)CC (stereo partly drawn) [Example 152, 4-bromo-N-{(1S)-2-hydroxy-1-[(1S)-1-methylpropyl]-4-pentenyl}benzenesulfonamide] | 6.64 | 1 (1=non-toxic) | fold induction at 3 µg/mL ([1]; Conc 3 μg/ml): 1.6; (%)APPI Toxicity ([2]; Conc 3 μg/ml): 1 (1=non-toxic)
CCC(O)[C@@H](NS(=O)(=O)c1ccc(Br)cc1)[C@@H](C)CC (stereo partly drawn) [Example 153, 4-bromo-N-{(1S)-2-hydroxy-1-[(1S)-1-methylpropyl]butyl}benzenesulfonamide] | 4.77 | 1 (1=non-toxic) | fold induction at 3 µg/mL ([1]; Conc 3 μg/ml): 2; (%)APPI Toxicity ([2]; Conc 3 μg/ml): 1 (1=non-toxic)
CC[C@H](C)[C@H](NS(=O)(=O)c1ccc(Br)cc1)C(O)c1ccc(F)cc1 (stereo partly drawn) [Example 154, 4-bromo-N-{(1S,2S)-1-[(4-fluorophenyl) (hydroxy)methyl]-2-methylbutyl}benzenesulfonamide] | 1.68 | 1 (1=non-toxic) | 
CC[C@H](C)[C@H](NS(=O)(=O)c1ccc(Br)cc1)C(O)c1ccc(Cl)cc1 (stereo partly drawn) [Example 155, 4-bromo-N-{(1S,2S)-1-[(4-chlorophenyl)(hydroxy)methyl]-2-methylbutyl}benzenesulfonamide] | 4.37 | 1 (1=non-toxic) | 
CC[C@H](C)[C@H](NS(=O)(=O)c1ccc(Br)cc1)C(O)C=C(C)C (stereo partly drawn) [Example 156, 4-bromo-N-{(1S)-2-hydroxy-4-methyl-1-[(1S)-1-methylpropyl]-3-pentenyl}benzenesulfonamide] | 2.01 | 1 (1=non-toxic) | fold induction at 3 µg/mL ([1]; Conc 3 μg/ml): 1.52; (%)APPI Toxicity ([2]; Conc 3 μg/ml): 1 (1=non-toxic)
C=C(C)C(O)[C@@H](NS(=O)(=O)c1ccc(Br)cc1)[C@@H](C)CC (stereo partly drawn) [Example 157, 4-bromo-N-{(1S)-2-hydroxy-3-methyl-1-[(1S)-1-methylpropyl]-3-butenyl}benzenesulfonamide] | 1.96 | 1 (1=non-toxic) | 
CC[C@H](C)[C@H](NS(=O)(=O)c1ccc(Br)cc1)C(O)c1ccc(OC)cc1 (stereo partly drawn) [Example 158, 4-bromo-N-{(11 S,2S)-1-[hydroxy(4-methoxyphenyl)methyl]-2-methylbutyl}benzenesulfonamide] |  | 1 (1=non-toxic) | APPI Fold Increase ([1]; Conc 10 μg/ml): 2.28 fold; APPI % of Example #98 ([1]; Conc 10 μg/ml): 101.49%
C/C=C(\C)C(O)[C@@H](NS(=O)(=O)c1ccc(Br)cc1)[C@@H](C)CC (stereo partly drawn) [Example 159, 4-bromo-N-{(1S,3E)-2-hydroxy-3-methyl-1-[(1S)-1-methylpropyl]-3-pentenyl}benzenesulfonamide] | 2.11 | 1 (1=non-toxic) | 
CC[C@H](C)[C@H](NS(=O)(=O)c1ccc(Br)cc1)C(O)CCC1OCCCO1 (stereo partly drawn) [Example 160, 4-bromo-N-{(1S)-4-(1,3-dioxan-2-yl)-2-hydroxy-1-[(1S)-1-methylpropyl]butyl} benzenesulfonamide] |  | 1 (1=non-toxic) | APPI Fold Increase ([1]; Conc 10 μg/ml): 1.66 fold; APPI % of Example #98 ([1]; Conc 10 μg/ml): 73.83%
C=CCCC(O)[C@@H](NS(=O)(=O)c1ccc(Br)cc1)[C@@H](C)CC (stereo partly drawn) [Example 161, 4-bromo-N-{(1S)-2-hydroxy-1-[(1S)-1-methylpropyl]-5-hexenyl}benzenesulfonamide] | 1.69 | 1 (1=non-toxic) | 
CC#CC(O)[C@@H](NS(=O)(=O)c1ccc(Br)cc1)[C@@H](C)CC (stereo partly drawn) [Example 162, 4-bromo-N-{(1S)-2-hydroxy-1-[(1S)-1-methylpropyl]-3-pentynyl}benzenesulfonamide] | 1.63 | 1 (1=non-toxic) | 
CC[C@H](C)[C@H](NS(=O)(=O)c1ccc(Br)cc1)C(O)c1ccc(N(C)C)cc1 (stereo partly drawn) [Example 164, 4-bromo-N-{(1S,2S)-1-[[4-(dimethylamino)phenyl](hydroxy)methyl]-2-methylbutyl} benzenesulfonamide] |  | 1 (1=non-toxic) | APPI Fold Increase ([1]; Conc 10 μg/ml): 3.53 fold; APPI % of Example #98 ([1]; Conc 10 μg/ml): 149.31%
CC[C@H](C)[C@H](NS(=O)(=O)c1ccc(Cl)cc1)C(C)O (stereo partly drawn) [Example 165, 4-Chloro-N-[(1S,2S)-1-(hydroxyethyl)-2-methylbutyl]benzenesulfonamide] | 2.05 | 1 (1=non-toxic) | 
CCCCCCC(O)[C@@H](NS(=O)(=O)c1ccc(Cl)cc1)[C@@H](C)CC (stereo partly drawn) [Example 167, 4-chloro-N-{(1S)-2-hydroxy-1-[(1S)-1-methylpropyl]octyl}benzenesulfonamide] | 9.66 | 1 (1=non-toxic) | 
